US8436039B2, “Inhibitors of the ATB(0,+) transporter and uses thereof” (Georgia Health Sciences University Research Institute, Inc., priority 2008, dated 2013)
pIC50: −log10 of the molar value.

Columns and labels:
Type in all cases: cell-based
mouse ATB^0,+ [1] = target: T1, mouse ATB^0,+ (Mus musculus, UniProt Q9JMA9); test: Inhibition of ATB^0,+-mediated glycine uptake in HRPE cells expressing cloned mouse ATB^0,+; settings: glycine 10 μM; inhibitor 1 mM; 30 min; NaCl; HRPE cells
T1 sequence (Q9JMA9 1-638): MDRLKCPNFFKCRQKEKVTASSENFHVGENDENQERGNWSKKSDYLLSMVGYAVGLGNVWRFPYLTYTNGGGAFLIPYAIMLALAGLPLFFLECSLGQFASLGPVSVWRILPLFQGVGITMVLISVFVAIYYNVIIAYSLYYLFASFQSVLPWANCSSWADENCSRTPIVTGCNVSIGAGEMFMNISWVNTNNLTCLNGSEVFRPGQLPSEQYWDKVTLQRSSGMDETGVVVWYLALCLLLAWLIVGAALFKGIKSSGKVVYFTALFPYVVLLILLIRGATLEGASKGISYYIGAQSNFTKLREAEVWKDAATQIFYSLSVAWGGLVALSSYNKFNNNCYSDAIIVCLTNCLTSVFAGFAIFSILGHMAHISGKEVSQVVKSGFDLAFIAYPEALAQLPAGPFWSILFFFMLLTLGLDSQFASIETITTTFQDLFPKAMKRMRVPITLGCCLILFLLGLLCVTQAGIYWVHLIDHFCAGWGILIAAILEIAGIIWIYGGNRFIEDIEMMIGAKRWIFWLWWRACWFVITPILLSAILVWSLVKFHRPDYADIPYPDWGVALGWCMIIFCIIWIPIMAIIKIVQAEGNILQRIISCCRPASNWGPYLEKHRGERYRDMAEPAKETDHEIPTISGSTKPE

mouse ATB^0,+ [2] = target: T1, mouse ATB^0,+; test: Substrate-induced inward currents in X. laevis oocytes expressing mouse ATB^0,+ (two-microelectrode voltage clamp); settings: voltage clamp, NaCl; for inward currents induced in ATB^0,+-expressing oocytes: 2.5 mM
Experimental: (§1) Capped cRNA from the cloned mouse or human ATB^0,+ cDNA was synthesized using the mMESSAGE mMACHTNE kit (Ambion, Austin, Tex., U.S.A.). Mature oocytes (stage IV or V) from X. laevis were injected with 50 ng of cRNA. Uninjected oocytes served as controls. The oocytes were used for electrophysiological studies 3-6 days after cRNA injection. Electrophysiological studies were performed by the two-microelectrode voltage-clamp method (Nakanishi et al., 2001, J. Physiol. 532, 297-304). Oocytes were superfused with an NaCl-containing buffer (100 mM NaCl, 2 mM KCl, 1 mM MgCl2, 1 mM CaCl2, 3 mM Hepes, 3 mM Mes and 3 mM Tris, pH 7.5), followed by the same buffer containing tryptophan derivatives. The membrane potential was clamped at −50 mV. The differences between the steady-state currents measured in the presence and absence of substrates were considered as the substrate-induced currents. In the analysis of the saturation kinetics of substrate-induced currents, the kinetic parameter K0.5 (i.e. substrate concentration necessary for induction of half-maximal current) was calculated by fitting the values of the substrate-induced currents to the Michaelis-Menten equation. The Na^+ and Cl^− activation kinetics of substrate-induced currents were analysed by measuring the substrate-specific currents in the presence of increasing concentrations of Na^+ (concentration of Cl^− kept constant at 100 mM) or in the presence of increasing concentrations of Cl^− (concentration of Na^+ kept constant at 100 mM). In these experiments, the composition of the superfusion buffer was modified to contain 2 mM potassium gluconate, 1 mM MgSO4 and 1 mM calcium gluconate in place of KCl, MgCl2 and CaCl2 respectively. The data from these experiments were analysed by the Hill equation to determine the Hill coefficient (h; number of Na^+ and Cl^− ions involved in the activation process). The kinetic parameters were determined by using the commercially available computer program Sigma Plot, version 6.0 (SPSS, Chicago, Ill., U.S.A.). Uninjected oocytes were used to determine the currents induced by tryptophan derivatives due to entry via transporters that may be constitutively expressed in the oocytes. At a concentration of 2.5 mM, the currents induced by these compounds were in the range of 0-3 nA in uninjected oocytes. These currents were less than 2% of the corresponding currents induced in ATB^0,+ cRNA-injected oocytes. Therefore the endogenous currents associated with the constitutively expressed transporters were not considered in the analysis of kinetic parameters of ATB^0,+ transport activity.
The above studies with the mammalian cell expression system have focused on the interaction of 1-methyltryptophan and other tryptophan derivatives with ATB^0,+ by examining the effects of these compounds on the transporter-mediated glycine uptake. These studies have shown convincingly that 1-methyltryptophan interacts with ATB^0,+, with the L-isomer having much higher affinity for the transporter than the D-isomer. However, these studies have not shown whether or not 1-methyltryptophan is actually a transportable substrate for ATB^0,+. It is possible that 1-methyltryptophan inhibits ATB^0,+-mediated glycine uptake simply by blocking the interaction of glycine with the substrate-binding site of the transporter, rather than by actually competing with glycine for the transport process. […] We wanted to know whether 1-methyltryptophan can actually be transported by ATB^0,+. For this, we used the X. laevis oocyte expression system. Since the transport process mediated by ATB^0,+ is electrogenic, exposure of ATB^0,+-expressing oocytes to transportable substrates will induce an inward current in an Na^+- and Cl^−-dependent manner. Exposure of the same oocytes to blockers will interfere with currents induced by transportable substrates, but will not induce currents by themselves. […]

ATB^0,+ in MCF7 cells = target: T2, ATB^0,+ in MCF7 cells (Homo sapiens, UniProt Q9UN76); test: D-serine uptake in MCF7 cells (constitutively expressed ATB^0,+); settings: MCF7 cells; for pIC50: D-serine 5 μM, NaCl, read-out: IC50 for inhibition of D-serine uptake
T2 construct: host or cells: MCF7
T2 sequence (Q9UN76 1-642): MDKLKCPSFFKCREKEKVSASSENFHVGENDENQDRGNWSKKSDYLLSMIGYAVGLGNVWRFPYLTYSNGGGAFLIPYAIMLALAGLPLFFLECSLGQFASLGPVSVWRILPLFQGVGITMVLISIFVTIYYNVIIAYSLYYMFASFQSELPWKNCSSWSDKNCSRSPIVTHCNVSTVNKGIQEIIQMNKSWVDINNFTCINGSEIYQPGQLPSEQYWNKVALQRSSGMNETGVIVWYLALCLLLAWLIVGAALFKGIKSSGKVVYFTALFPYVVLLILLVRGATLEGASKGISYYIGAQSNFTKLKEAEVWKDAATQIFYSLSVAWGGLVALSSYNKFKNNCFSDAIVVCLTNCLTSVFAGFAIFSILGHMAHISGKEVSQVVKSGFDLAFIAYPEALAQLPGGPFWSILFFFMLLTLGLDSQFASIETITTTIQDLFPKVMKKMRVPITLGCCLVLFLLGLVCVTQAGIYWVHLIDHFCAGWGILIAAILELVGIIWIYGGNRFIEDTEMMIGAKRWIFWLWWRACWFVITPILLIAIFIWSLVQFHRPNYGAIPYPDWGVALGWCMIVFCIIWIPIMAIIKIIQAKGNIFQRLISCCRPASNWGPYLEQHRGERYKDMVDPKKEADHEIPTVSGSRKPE
Experimental: Cells were seeded and grown in 24-well culture plates to confluency and used for uptake measurements. Radiolabelled glycine or D-serine was used as the substrate to determine the transport function of ATB^0,+. Uptake measurements were routinely made in an NaCl-containing buffer (25 mM Hepes/Tris buffer, pH 7.4, 140 mM NaCl, 5.4 mM KCl, 1.8 mM CaCl2, 0.8 mM MgSO4 and 5 mM glucose). Ion dependence of the transport process was evaluated by studying the uptake activity in buffers of varying compositions. NaCl in the uptake buffer was replaced iso-osmotically with NMDG (N-methyl-D-glucamine) chloride to prepare an Na^+-free buffer, and with sodium gluconate to prepare a Cl^−-free buffer. Linear uptake rates were determined by employing a 10 min incubation period, based on time course experiments. Na^+-activation kinetics was analysed by studying the uptake rates in the presence of varying concentrations of Na^+ (2.5-140 mM) in the uptake buffer with Cl^− concentration kept constant at 140 mM. This was done by replacing NaCl with appropriate concentrations of NMDG. Cl^−-activation kinetics was analysed by studying the uptake rates in the presence of varying concentrations of Cl^− (2.5-100 mM) in the uptake buffer with Na^+ concentration kept constant at 140 mM. This was done by replacing NaCl with appropriate concentrations of sodium gluconate. Uptake data for Na^+- and Cl^−-activation kinetics were analysed using the Hill equation, and values for K0.5 for Na^+ and Cl^− and for the Hill coefficient (h) were determined by linear and non-linear regression methods. A commercially available software program (Sigma Plot, version 6.0; SPSS) was used for this purpose. Substrate specificity of the uptake process was evaluated by monitoring the effects of unlabelled amino acids (5 mM) on the uptake of radiolabelled glycine or D-serine (5 μM: radiolabelled substrate, 0.05 μM; unlabelled substrate, 4.95 μM).
The kinetic nature of inhibition of D-serine uptake by α-methyl-DL-tryptophan was investigated in MCF7 cells by monitoring the uptake at increasing concentrations of D-serine (range, 50-2000 μM) in the absence and presence of 100 μM α-methyl-DL-tryptophan. The kinetic parameters were calculated by linear regression (Eadie-Hofstee plots) and the values were confirmed by non-linear regression.
We employed a similar experimental strategy to detect specifically the transport function of ATB^0,+ in the remaining seven cell lines. […] We also investigated the effect of α-methyl-DL-tryptophan on D-serine uptake in MCF7 cells.

human LAT1/4F2hc = human LAT1/4F2hc (Homo sapiens, UniProt Q01650); test: Inhibition of LAT1 transport function: L-valine uptake in HRPE cells co-expressing human LAT1 and human 4F2hc; settings: 1 mM; L-[14C]valine 0.75 μM; 5 min
human LAT1/4F2hc, sequence (Q01650 whole entry): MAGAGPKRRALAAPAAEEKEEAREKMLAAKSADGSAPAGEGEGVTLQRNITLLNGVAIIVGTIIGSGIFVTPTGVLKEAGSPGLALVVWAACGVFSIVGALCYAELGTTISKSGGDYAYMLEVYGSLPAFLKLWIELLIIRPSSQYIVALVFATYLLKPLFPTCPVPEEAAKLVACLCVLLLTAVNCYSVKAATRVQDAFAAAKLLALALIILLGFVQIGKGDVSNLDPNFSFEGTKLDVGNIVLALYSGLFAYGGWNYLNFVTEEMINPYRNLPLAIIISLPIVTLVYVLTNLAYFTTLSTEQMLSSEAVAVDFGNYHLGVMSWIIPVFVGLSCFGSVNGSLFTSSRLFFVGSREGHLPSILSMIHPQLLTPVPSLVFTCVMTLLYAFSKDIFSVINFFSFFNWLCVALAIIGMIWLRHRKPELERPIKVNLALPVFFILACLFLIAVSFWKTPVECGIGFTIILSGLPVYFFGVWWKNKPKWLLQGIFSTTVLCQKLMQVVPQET
human LAT1/4F2hc, sequence (P08195 102-630 partner): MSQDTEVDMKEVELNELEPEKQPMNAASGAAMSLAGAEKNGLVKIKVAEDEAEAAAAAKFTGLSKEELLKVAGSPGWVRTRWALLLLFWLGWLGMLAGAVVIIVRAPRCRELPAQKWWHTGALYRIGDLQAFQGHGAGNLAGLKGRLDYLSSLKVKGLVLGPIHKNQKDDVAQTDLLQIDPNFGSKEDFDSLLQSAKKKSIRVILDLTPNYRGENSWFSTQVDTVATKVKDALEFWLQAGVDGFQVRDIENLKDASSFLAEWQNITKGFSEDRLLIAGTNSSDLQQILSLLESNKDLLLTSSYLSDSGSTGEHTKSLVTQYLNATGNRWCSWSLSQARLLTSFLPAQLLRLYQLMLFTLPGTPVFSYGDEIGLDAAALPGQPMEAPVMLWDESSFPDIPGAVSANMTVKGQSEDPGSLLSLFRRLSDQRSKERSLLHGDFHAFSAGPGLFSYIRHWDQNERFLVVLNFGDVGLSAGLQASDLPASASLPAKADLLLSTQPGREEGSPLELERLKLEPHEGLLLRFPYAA

human ATB^0,+ = target: T3, human ATB^0,+ (Homo sapiens, UniProt Q9UN76); test: Block of inward currents induced by amino acid mixture simulating plasma in X. laevis oocytes expressing human ATB^0,+; settings: even at 1 mM; amino acid mixture simulating plasma
T3 construct: The human ATB^0,+ cDNA was cloned from an MCF7 cell (a human mammary epithelial cancer cell line) cDNA library; expressed in transfected cells; host or cells: Xenopus laevis oocytes injected with 50 ng capped cRNA
T3 sequence (Q9UN76 1-642): T2 sequence (Q9UN76 1-642)
Experimental: as §1
These studies with α-methyl-DL-tryptophan as a blocker of ATB^0,+ were carried out with L-tryptophan at sub-saturating concentrations. […] Therefore, using the Xenopus oocyte heterologous expression system, we monitored the transport activity of human ATB^0,+ in the presence of an amino acid mixture consisting of 18 different amino acids, each at its respective physiological concentration found in plasma (Glew et al., 2004, Clin. Chim. Acta 342, 179-185) (Table 1). Inward currents were detected under these conditions in oocytes expressing human ATB^0,+. […] We then monitored the ability of α-methyl-DL-tryptophan to block the inward currents induced by the same mixture of amino acids in oocytes expressing human ATB^0,+ (FIG. 4B). […]

SMILES: Cc1cccc2[nH]cc(CC(N)C(=O)O)c12 (racemic) [4-methyl-DL-tryptophan]
- inhibition of ATB^0,+-specific glycine uptake (mouse ATB^0,+ [1]): inhibited

SMILES: Cc1ccc2[nH]cc(CC(N)C(=O)O)c2c1 (racemic) [5-methyl-DL-tryptophan]
- inhibition of ATB^0,+-specific glycine uptake (mouse ATB^0,+ [1]): inhibited

SMILES: Cc1ccc2c(CC(N)C(=O)O)c[nH]c2c1 (racemic) [6-methyl-DL-tryptophan]
- inhibition of ATB^0,+-specific glycine uptake (mouse ATB^0,+ [1]): inhibited

SMILES: N[C@@H](Cc1c[nH]c2ccc(O)cc12)C(=O)O [5-hydroxy-L-tryptophan]
- inhibition of ATB^0,+-specific glycine uptake (mouse ATB^0,+ [1]): inhibited

SMILES: NCCc1c[nH]c2ccc(O)cc12 [5-hydroxytryptamine]
- inhibition of ATB^0,+-specific glycine uptake (mouse ATB^0,+ [1]): not able to inhibit
- inward currents induced in ATB^0,+-expressing oocytes (mouse ATB^0,+ [2]): did not induce currents

SMILES: N=C(N)NCCC[C@H](N)C(=O)O [Arginine]
- pIC50 (ATB^0,+ in MCF7 cells): 3.30 to 3.60

SMILES: N[C@H](CO)C(=O)O [D-serine]
- Kt for D-serine uptake (ATB^0,+ in MCF7 cells; absence of the blocker): 517 ± 38 µM
- Vmax for D-serine uptake (ATB^0,+ in MCF7 cells; absence of the blocker): 32.4±1.5 nmol/mg of protein per 15 min

SMILES: N[C@H](Cc1c[nH]c2ccccc12)C(=O)O [D-tryptophan]
- inhibition of ATB^0,+-specific glycine uptake (mouse ATB^0,+ [1]): inhibited
- Michaelis constant (K0.5) of substrate-induced currents (mouse ATB^0,+ [2]; saturation kinetics): 288 ± 48 µM

SMILES: COC(=O)[C@@H](N)Cc1c[nH]c2ccccc12 [L-tryptophan methyl ester]
- inhibition of ATB^0,+-specific glycine uptake (mouse ATB^0,+ [1]): inhibited

SMILES: CC(=O)N[C@@H](Cc1c[nH]c2ccccc12)C(=O)O [N-acetyl-L-tryptophan]
- inhibition of ATB^0,+-specific glycine uptake (mouse ATB^0,+ [1]): not able to inhibit
- inward currents induced in ATB^0,+-expressing oocytes (mouse ATB^0,+ [2]): did not induce currents

SMILES: NCCCC[C@H](N)C(=O)O [lysine]
- pIC50 (ATB^0,+ in MCF7 cells): 3.30 to 3.60

SMILES: N[C@@H](Cc1c[nH]c2ccccc12)C(=O)O [tryptophan]
- effect on cDNA-induced valine uptake (human LAT1/4F2hc): abolished completely

SMILES: C[C@@](N)(Cc1c[nH]c2ccccc12)C(=O)O [α-methyl-D-tryptophan, α-Methyl-D-Tryptophan]
- inhibition at 1000 µM (human ATB^0,+): ≤ 40%
